Results taken from patent US20100196308A1, “VITAMIN D3 AND ANALOGS THEREOF FOR ALLEVIATING SIDE EFFECTS ASSOCIATED WITH CHEMOTHERAPY” (priority 2009, published 2010).

What was measured:
[1] = Calcium levels in chemotherapy-treated chloroleukemic rats
Text: On days 22, 26, 49 and 53, blood from 3 animals is collected by cardiac puncture. All blood samples are collected in a vial for analysis of calcium levels. All animals used for bone marrow cultures are anesthetized and exsanguinated prior to obtaining the bone marrow.

[2] = test system: Long Evans rats injected with MIAC51; experiment: Absolute neutrophil counts in chloroleukemic rats under chemotherapy regimens; conditions: for Nadir ANC without calcitriol treatment: chemotherapy + vehicle
Description: For the first cycle of experiments, 15-day old Long Evans rats were injected with MIAC51. […] Starting on day 20 through 32, complete granulocyte counts were then performed by puncturing the tail vein with a 27 gauge syringe while animals were manually restrained.
Neutrophil counts were measured by puncturing the tail vein as described above. […] On day 52, rats were randomized into 3 groups for each chemotherapy regimen.

[3] = Viability of myeloid cells by trypan blue exclusion; assay type: cell-based; conditions: human, 24-hour exposure, RPMI 1640 with 10% fetal calf serum (FIG. 2)
Description: Varying doses of 1,25(OH)2D3 were applied to the myeloid cells. A graph of the effects of 1,25(OH)2D3 on myeloid cells is provided as FIG. 2. The viability of the myeloid cells was determined by trypan blue exclusion after a 24-hour exposure to varying doses of 1,25(OH)2D3. For these experiments, 2.5×10^5 cells/mL were incubated with different doses of 1,25(OH)2D3 (0.01 μg/mL, 0.1 μg/mL, 0.5 μg/mL, 0.75 μg/mL, 1 μg/mL, and 10 μg/mL) for 24 hours in RPMI 1640 supplemented with 10% fetal calf serum.

[4] = test system: Peripheral circulating progenitor stem cells; experiment: Colony formation assay in semi-solid agar medium with GM-CSF and G-CSF; assay type: cell-based, human; conditions: Group 2: 0.05 μg/mL 1,25(OH)2D3 for 24 hours, no 4-HC; mean ± SD, quadruplicates
Text: Tissue culture grade agar, fetal calf serum (FCS), and powdered Dulbecco's Modified Eagle's Medium (DMEM) were obtained from Invitrogen (Carlsbad, Calif.). Peripheral circulating progenitor stem cells were obtained by venipuncture of the saphenous vein of a healthy donor into sodium heparin vacutainers (Becton, Dickinson and Company, Franklyn Lakes N.J.). The buffy coat was obtained by gradient centrifugation using histopaque 1077 as per manufacturer's instructions. Cells were washed twice with RMPI 1640 supplemented with 10% fetal calf serum (Invitrogen). […] Cells were cultured for 14 days in a 5% CO2 incubator, with 100% humidity at 37° C. At the end of the culture period, colonies (clusters of 50 or more cells) were counted using an inverted microscope by two independent viewers. Peripheral stem cells were randomized into 4 groups at a concentration of 5×10^5 cells/mL in DMEM supplemented with 10% fetal calf serum. Group 1 was an untreated control, group 2 was incubated for 24 hours with 0.05 μg/mL of 1,25(OH)2D3, group 3 was incubated for 24 hours with 0.05 μg/mL of 1,25(OH)2D3, group 4 was untreated. Cells were washed with DMEM 10% fetal calf serum. Groups 3 and 4 were then incubated with 25 μg/mL of 4-HC for 20 hours. Subsequently, all groups were washed twice as previously described. Cells were then plated in semi-solid agar medium as described above.

bone marrow progenitors = experiment: Bone marrow cultures (colony counts) from chemotherapy-treated chloroleukemic rats
Description: To assay the Colony-Forming Activity of bone marrow progenitors and MIAC51 cells, bone marrow cells are obtained as previously described (Jimenez and Yunis, 1988), and are washed with serum free DMEM. Cells are then suspended to a concentration of 1×10^6/mL and layered onto a gradient for centrifugation for 40 minutes at 400 g. The pellet found between the medium and gradient is then carefully aspirated and washed in serum free DMEM two times. Finally, a cell suspension containing 1×10^5 cells/mL is prepared in DMEM supplemented with 10% fetal bovine serum, and incubated in tissue culture plates for 3 hours. The non-adherent cells are aspirated and transferred to semi-solid agar culture plates.
To prepare semi-solid agar medium, powdered MEM is reconstituted in tissue-culture grade water to a concentration of 2×. Agar (0.3%) is then added and the mixture is boiled until the agar is fully dissolved (Perkins and Yunis, 1986). The medium is cooled to 37° C. and essential amino acids which might have been depleted during the boiling process are then added. The semi-solid medium is then distributed onto multi-well clusters, filling one well with tissue culture grade water to avoid further evaporation. At this point, G- or GM-CSF are added following manufacturer's procedure, and the bone marrow cell suspension or MIAC51 cells are added by careful pipetting in order to avoid bubbles. Colonies are counted 7 days later.
Bone marrow cultures were performed on days 22, 25 and 32. On day 32, a complete leukocyte count was performed in all animals and those who were positive for MIAC51 were sacrificed.

MIAC51 = conditions: stated in the power analysis of Example 2
Description: Sprague Dawley rats (10-day old rat pups, preferably of natural litters) are used in this study. […] Thus, in rats the onset of neutropenia as judged by the nadir of ANC has been well characterized.
To obtain a power of 0.8 and a=0.05 with an absolute difference of 20%, 36 animals per group may be needed. […] According to power analysis, the minimum sample size to achieve statistical significance is 36 animals. Therefore, 4 more animals are added to each group to account for model attrition rate of 10%.

## C=C1/C(=C\C=C2/CCC[C@]3(C)[C@@H]([C@H](C)CCCC(C)(C)O)CC[C@@H]23)C[C@@H](O)C[C@@H]1O [calcitriol, 1,25-dihydroxyvitamin D3]
[1]; rat, in vivo
  hypercalcemia: did not induce hypercalcemia
[2]; first cycle, 10 μg calcitriol pulse, cyclophosphamide (150 mg/kg) regimen
  Nadir ANC with calcitriol treatment: 2154 ± 147/mm^3
[2]; first cycle, 10 μg calcitriol pulse, cyclophosphamide and doxorubicin (100 mg/kg, 25 mg/kg) regimen
  Nadir ANC with calcitriol treatment: 2365 ± 145/mm^3
[2]; first cycle, 10 μg calcitriol pulse, cyclophosphamide, doxorubicin and paclitaxel (100, 25, 10 mg/kg) regimen
  Nadir ANC with calcitriol treatment: 2365 ± 125/mm^3
[2]; first cycle, all three chemotherapy regimens
  effect on nadir ANC: significantly decreases the nadir ANC
[2]; second cycle, 20 μg calcitriol, cyclophosphamide and doxorubicin regimen
  Nadir ANC with calcitriol treatment: 2417 ± 136/mm^3
[2]; second cycle, 20 μg calcitriol, cyclophosphamide regimen
  Nadir ANC with calcitriol treatment: 2451 ± 235/mm^3
[2]; second cycle, 20 μg calcitriol, cyclophosphamide, doxorubicin and paclitaxel regimen
  Nadir ANC with calcitriol treatment: 2364 ± 136/mm^3
[2]; second cycle, all three chemotherapy regimens
  protection against chemotherapy-induced neutropenia: significantly protects against chemotherapy-induced neutropenia in all three chemotherapy regimens
[3]
  viability at 24 h, 0.05 μg/mL: 90%
[4]
  Colony Counts at 14 Days: 48 ± 6
Bone marrow progenitors; day 22, first cycle, cyclophosphamide and calcitriol (FIG. 4a)
  colony count of bone marrow cultures: 56±17 colonies
Bone marrow progenitors; day 25, first cycle, cyclophosphamide and calcitriol (FIG. 5a)
  colony count of bone marrow cultures: 80±15 colonies
Bone marrow progenitors; day 40 (so in the source), second cycle, cyclophosphamide and calcitriol
  colony count of bone marrow cultures: 82±25 colonies
Bone marrow progenitors; day 52, second cycle, cyclophosphamide and calcitriol
  colony count of bone marrow cultures: 86±25 colonies

## Cyclophosphamide
[1]; Day 22, Chemo + Vehicle
  Calcium Levels: 11 ± 0.3 mg/dL
[1]; Day 25, Chemo + Vehicle
  Calcium Levels: 9.5 ± 0.2 mg/dL
[1]; Day 32, Chemo + Vehicle
  Calcium Levels: 9.5 ± 0.5 mg/dL
[1]; Day 49, Chemo + Vehicle
  Calcium Levels: 11 ± 0.2 mg/dL
[1]; Day 52, Chemo + Vehicle
  Calcium Levels: 10 ± 0.5 mg/dL
[1]; Day 60, Chemo + Vehicle
  Calcium Levels: 11 ± 0.4 mg/dL
[2]; first cycle
  Nadir ANC without calcitriol treatment: 245 ± 25/mm^3
[2]; second cycle
  Nadir ANC without calcitriol treatment: 236 ± 32/mm^3
MIAC51
  Remission rate: at least 20%
Bone marrow progenitors; day 22, first cycle, cyclophosphamide and vehicle
  colony count of bone marrow cultures: 5±1 colonies
Bone marrow progenitors; day 25, first cycle, cyclophosphamide and vehicle
  colony count of bone marrow cultures: 12±4 colonies
Bone marrow progenitors; day 40 (so in the source), second cycle, cyclophosphamide and vehicle
  colony count of bone marrow cultures: 4.5±1 colonies
Bone marrow progenitors; day 52, second cycle, cyclophosphamide-treated
  colony count of bone marrow cultures: 7±2.5 colonies
